Experimental data: patent publication US5648344A, “Methods of treating inflammation using selection binding compounds” (Glycomed Incorporated, priority 1992, dated 1997)

Assays:
[1] = test system: ELAM-1; test: Adhesion of ELAM-transfected COS cells to glycolipids adsorbed to PVC microtiter wells or resolved on TLC plates (controlled detachment force); format: cell-based, human; conditions: ELAM-transfected COS cells as probes
Experimental: The invention also includes a method of assaying candidate ligands for their ability to adhere to ELAM-1. The method comprises attaching candidate ligands to a substrate surface and then contacting the substrate surface thereon with recombinant cells, that are genetically engineered to express high levels of ELAM-1, for a sufficient time to allow the cells to adhere to the substrate bearing the candidate ligand. […] Candidate ligands which adhere to ELAM-1 are determined via the labels on the cells. Such molecules are isolated, characterized, and their structure specifically identified. Accordingly, the invention also includes glycolipid ligands which can be isolated via such an assay procedure.
COS cells, expressing membrane-bound ELAM-1, were metabolically radiolabeled with ^32 PO4 and used as probes in two assay systems to screen for recognition of glycolipids. In the first, glycolipids were adsorbed to the bottoms of PVC microtiter wells, while in the second they were resolved on TLC plates. […]

[2] = test system: ELAM-1; test: Inhibition by carbohydrates of ELAM-transfected COS cell adhesion to glycolipids; format: cell-based, human; conditions: for inhibition of cell adhesion to glycolipids: at 100 μg/ml, glycolipids eluted from DEAE-Sepharose with 5 mM potassium acetate; for inhibition of adhesion of ELAM-1 transfected COS cells to sialylated glycolipids: glycolipids resolved on TLC plates or adsorbed on PVC microtiter wells, concentration not given
Description: Radiolabeled COS cells expressing cell surface ELAM-1 were used as probes to screen human leukocyte-derived glycolipids. ELAM-1 transfected COS cells adhered to a subset of sialylated glycolipids which were resolved on TLC plates or adsorbed on PVC microtiter wells. Adhesion to these glycolipids required calcium, but was not inhibited by heparin, chondroitin sulfate, keratin sulfate, or yeast phosphomannan (PPME).
COS cells, expressing membrane-bound ELAM-1, were metabolically radiolabeled with ^32 PO4 and used as probes in two assay systems to screen for recognition of glycolipids. In the first, glycolipids were adsorbed to the bottoms of PVC microtiter wells, while in the second they were resolved on TLC plates. In both assays these glycolipids were probed for their ability to support adhesion of ELAM-transfected COS cells, untransfected COS cells, or COS cells transfected with a plasmid containing an irrelevant cDNA, under conditions of controlled detachment force (see Swank-Hill, P., et al., Anal. Biochem. (1987) 183:27; and Blackburn, C. C., et al., J. Biol. Chem. (1986) 261:2873 each of which is incorporated herein by reference to disclose the details of such assaying methodology).
The material not retained on the column and in fractions eluted by step-wise increases in salt concentration (from 5 mM to 250 mM potassium acetate in methanol) were screened for cell adhesion.

Row | Compound | recognition by / binding to ELAM-1 [1] | inhibition of cell adhesion to glycolipids [2] | inhibition of adhesion of ELAM-1 transfected COS cells to sialylated glycolipids [2]
1 | CC(=O)N[C@H]1[C@H]([C@H](O)[C@H](O)CO)O[C@@](O[C@H]2[C@@H](O)[C@@H](CO)O[C@@H](O[C@H]3[C@H](O[C@@H]4O[C@@H](C)[C@@H](O)[C@@H](O)[C@@H]4O)[C@@H](NC(C)=O)C(O)O[C@@H]3CO)[C@@H]2O)(C(=O)O)C[C@@H]1O (stereo partly drawn) [Neu NAc α2-3Gal-β1-4(Fuc α1-3)-GlcNAc] | effectively bind to ELAM-1 |  | 
2 | chondroitin sulfate |  | not inhibited | not inhibited
3 | heparin |  | not inhibited | not inhibited
4 | keratin sulfate |  | not inhibited | not inhibited
5 | yeast phosphomannan |  | not inhibited | not inhibited
